The values below are quoted from earlier work in US20130039858A1, “NIR MATERIALS AND NANOMATERIALS FOR THERANOSTIC APPLICATIONS” (University of Florida Research Foundation, Inc., priority 2010, published 2013).

For the data set the following is noted: in H2O.

Consider `CC1(C)C(/C=C/C=C/C=C/C=C2\N(CCCCS(=O)(=O)O)c3ccc4ccccc4c3C2(C)C)=[N+](CCCCS(=O)(=O)[O-])c2ccc3ccccc3c21` [ICG, indocyanine green], for which the critical micelle concentration result is on record as “about 0.32 mg/mL”.
